Measured values as given in PMC9942192 (ACS Synthetic Biology, 2023).

Target: T1, AtSWEET4 (Arabidopsis thaliana, UniProt Q944M5)
T1 sequence (Q944M5 1-251): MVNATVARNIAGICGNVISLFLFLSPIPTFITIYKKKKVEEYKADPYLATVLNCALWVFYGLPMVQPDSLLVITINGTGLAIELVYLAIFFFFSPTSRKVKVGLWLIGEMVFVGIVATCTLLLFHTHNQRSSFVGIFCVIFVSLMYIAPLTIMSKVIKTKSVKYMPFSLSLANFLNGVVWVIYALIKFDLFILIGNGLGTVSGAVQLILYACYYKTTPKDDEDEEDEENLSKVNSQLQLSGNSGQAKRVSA
Test: […]-radiolabeled uptake in yeast EBY4000
Format: cell-based
Settings: labelled compound; positive control; n = 3

For `OCC1(O)OC[C@@H](O)[C@@H](O)[C@@H]1O` (stereo partly drawn) [D-fructose], the uptake was “D-mannose and D-fructose transporter AtSWEET4 serves as a positive control”.

With `OC[C@H]1OC(O)[C@@H](O)[C@@H](O)[C@@H]1O` (stereo partly drawn) [D-mannose] the uptake was “D-mannose and D-fructose transporter AtSWEET4 serves as a positive control”.
